The values that follow come from patent publication US20110281852A1 (priority 2010, published 2011).

One data set is described as follows: in vitro. Conditions: mouse, 3T3-L1 cells during differentiation. As for the experimental part: Cell culture: 3T3-L1 cells were cultured at 37° C. in a humidified 5% CO2 atmosphere and grown in a culture medium (CM) (DMEM supplemented with 10% FBS, 100 units/ml penicillin and […] streptomycin). Differentiation conditions for 3T3-L1 were as described (Dowell et al, 2000). Briefly, confluent 3T3-L1 cells were maintained in culture medium for 48 hrs (day 0). Cells were placed in Differentiation Medium 1 (DM1) (CM with 167 nM insulin, 520 μM isobutylmethylxanthine (IBMX), and 1 μM dexamethasone) for a further 48 hrs (Day 2). The medium was then changed to differentiation medium 2 (DM2) (CM with 167 nM insulin) for a further 48 hrs (Day 4). The DM2 was then changed every 48 hrs for an additional 4 days (Day 8).
Culture medium was removed at 24, 48 and 72 hrs and MTT (0.5 mg/ml in pure DMEM, 50 μl/well) was added.

Another data set relates to PPARγ. In words: Real-time RT-PCR, PPARγ mRNA in 3T3-L1. Conditions: 8 days. The class given is cell-based, mouse. From the text:
(§1) Realtime RT-PCR: Real-time reverse transcriptase polymerase chain reaction (RT-PCR) analysis was used to measure mRNA expression of genes SREBP-1, PPARγ, C/EBPα, low density lipoprotein receptor (LDLR), Adiponectin, and fatty acid synthase (FAS) under the control of β-actin. Briefly, total RNA was isolated from 3T3-L1 cells following treatment for 8 days with Trizol reagent (Invitrogen, Carlsbad, Calif., USA) according to the manufacturer's instruction. RNA was quantified using absorption of light at 260 nm, and sample purity was checked by OD 260 nm/280 nm. 0.8 μg of total RNA from each sample was used for reverse transcription reaction using the TaqMan Reverse Transcription Reagents (Applied Biosystems, Foster City, Calif., USA) according to the manufacturers' instructions. PCR was done using the SYBR green Master Mix (Applied Biosystems, Foster City, Calif., USA) according to the manufacturers' instructions. The temperature cycling conditions of amplification were as follows: an initial step of denaturation at 95° C. for 10 min, 40 cycles of denaturation at 95° C. for 30 s, annealing at 55° C. for 30 s, and elongation at 72° C. for 30 s. Realtime RT-PCR was performed using Mx3000P Realtime Thermocyclers (Statagene, La Jolla, Calif., USA). The relative mRNA levels of these genes were calculated by 2-delta delta CT method and normalized with control groups.

The test system of the next data set is Adiponectin. Put plainly: Real-time RT-PCR, Adiponectin mRNA in 3T3-L1. The class given is cell-based, mouse. Conditions: 8 days.
Text: as §1

Data set [1] is described as follows: Body weight gain, high-fat diet-induced obesity mice and normal diet mice. It counts as in vivo, mouse. From the text: (§2) Six mice per subgroup were obtained finally.
Another data set has as its system C/EBPα. In words: Real-Time RT-PCR, C/EBPα mRNA in epididymal fat of FD mice. The class given is in vivo, mouse. As for the experimental part:
RNA and protein purification and quantification from epididymal fat tissues: RNA and protein was isolated from 60 mg of epididymal fat tissues with Trizol (Invitrogen, Carlsbad, Calif., USA) following the protocol recommended by the manufacturers. RNA was dissolved in pure water and quantified at 260/280 nm, and sample integrity was checked by 1.5% agarose gel electrophoresis. Protein concentration was determined using the Micro BCA Protein Assay Kit (Fisher Scientific, Pittsburgh, Pa., USA) according to the manufacturer's instructions.
Quantitative Real-Time RT-PCR: Real-Time reverse transcriptase polymerase chain reaction (RT-PCR) analysis was used to measure mRNA expression of genes PPARγ, C/EBPα, GATA-2 and GATA-3 in the control of β-actin. Total RNA (0.8 μg) from each sample was used for a reverse transcription reaction using the TaqMan Reverse Transcription Reagents (Applied Biosystems, Foster City, Calif., USA) following the manufacturer's instructions. PCR was done using the SYBR green Master Mix (Applied Biosystems, Foster City, Calif., USA) following the manufacturer's instructions. The cycling conditions of amplification were as follows: an initial step of denaturation at 95° C. for 10 min, 40 cycles of denaturation at 95° C. for 30 s, annealing at 55° C. for 30 s, and elongation at 72° C. for 30 s. Real-Time PCR was performed using Mx3000P Real-Time Thermocyclers (Stratagene, La Jolla, Calif., USA). The relative mRNA levels of these genes were calculated by 2-delta delta CT method and normalized with control-treated groups.

Data set [2] can be described thus: Food intake, high-fat diet and normal diet mice. The class given is in vivo, mouse.
Text: as §2

[3] abbreviates: 8 μM berberine + 15 μM clozapine.
[4] abbreviates: 8 μM berberine + 50 μM risperidone.

Compound `COc1ccc2cc3[n+](cc2c1OC)CCc1cc2c(cc1-3)OCO2.[Cl-]` [berberine, Berberine (Chloride Form)] displayed a cytotoxicity at 2 days, 8 μM in the data set “in vitro” of 15.6%. Further, the cytotoxicity at 4 days, 8 μM in the data set “in vitro” was found to be 12.8%. The same compound had a cytotoxicity at 6 days, 8 μM in “in vitro” of 12.6%. Besides, the cytotoxicity at 8 days, 8 μM in “in vitro” was found to be 11.4%. In addition, the “decrease of PPARγ mRNA expression vs clozapine treated group” value in the data set on PPARγ (setting [3]) is 87.7%. For the same compound, the “decrease of PPARγ mRNA expression vs risperidone treated group” value in the data set on PPARγ (setting [4]) is recorded as 93.1%. In addition, the “decrease of adiponectin mRNA expression vs clozapine treated group” value with Adiponectin (setting [3]) was determined as 96.3%. In the data set with Adiponectin (setting [4]), the “decrease of Adiponectin mRNA expression vs risperidone treated group” value is reported as 98.2%. Besides, the body weight gain is 1.5±0.7 g/mouse in data set [1] (FD mice, 0.75 mg/kg/day i.p., 36 days (control 4.3±0.6)); 1.9±0.7 g/mouse in data set [1] (FD mice, 1.5 mg/kg/day i.p., 36 days); 1.4±0.5 g/mouse in data set [1] (FD mice, 3 mg/kg/day i.p., 36 days); 2.5±0.7 g/mouse in data set [1] (ND mice, 3 mg/kg/day i.p., 36 days (control 2.3±0.9)). Also, the “decrease of C/EBP-α mRNA expression vs control group” value was 46.4% in the data set on C/EBPα (0.75 mg/kg/day), 66.1% in the data set on C/EBPα (1.5 mg/kg/day) and 72.7% with C/EBPα (3 mg/kg/day). The food intake in data set [2] (FD mice, 0.75 mg/kg/day, 36 days (control 3.5±0.4)) came to 3.0±0.3 g/mouse/day; in data set [2] (FD mice, 1.5 mg/kg/day, 36 days) it was 2.7±0.5 g/mouse/day; in data set [2] (FD mice, 3 mg/kg/day, 36 days) it was 2.5±0.2 g/mouse/day; in data set [2] (ND mice, 3 mg/kg/day, 36 days (control 3.8±0.7)) it was 3.3±0.5 g/mouse/day.
